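In this assay, cells in 96-well plates receive the compound at five concentrations for 48 hours. Endpoints are linearly interpolated between the surrounding concentrations. Here, GI50 denotes the concentration required for 50% inhibition of growth. At the TGI there is no net growth.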
Assays:
Assay in all cases: DTP human tumour cell line panel, 48 h
[1] = test system: 786-0 renal
[2] = test system: A498 renal
[3] = test system: A549 NSCLC
[4] = test system: ACHN renal
[5] = test system: BT-549 breast
[6] = test system: CAKI-1 renal
[7] = test system: CCRF-CEM leukemia
[8] = test system: COLO 205 colon
[9] = test system: DU-145 prostate
[10] = test system: EKVX NSCLC
[11] = test system: HCC-2998 colon
[12] = test system: HCT-116 colon
[13] = test system: HCT-15 colon
[14] = test system: HL-60(TB) leukemia
[15] = test system: HOP-62 NSCLC
[16] = test system: HOP-92 NSCLC
[17] = test system: HS 578T breast
[18] = test system: HT29 colon
[19] = test system: IGROV1 ovarian
[20] = test system: K-562 leukemia
[21] = test system: KM12 colon
[22] = test system: LOX IMVI melanoma
[23] = test system: M14 melanoma
[24] = test system: MALME-3M melanoma
[25] = test system: MCF7 breast
[26] = test system: MDA-MB-231 breast
[27] = test system: MDA-MB-435
[28] = test system: MDA-MB-468 breast
[29] = test system: MOLT-4 leukemia
[30] = test system: NCI-H226 lung
[31] = test system: NCI-H23 lung
[32] = test system: NCI-H460 lung
[33] = test system: NCI-H522 lung
[34] = test system: NCI/ADR-RES ovarian
[35] = test system: OVCAR-3 ovarian
[36] = test system: OVCAR-4 ovarian
[37] = test system: OVCAR-5 ovarian
[38] = test system: OVCAR-8 ovarian
[39] = test system: PC-3 prostate
[40] = test system: RPMI-8226 leukemia
[41] = test system: SF-268 CNS
[42] = test system: SF-295 CNS
[43] = test system: SF-539 CNS
[44] = test system: SK-MEL-2 melanoma
[45] = test system: SK-MEL-28 melanoma
[46] = test system: SK-MEL-5 melanoma
[47] = test system: SK-OV-3 ovarian
[48] = test system: SN12C renal
[49] = test system: SNB-19 CNS
[50] = test system: SNB-75 CNS
[51] = test system: SR leukemia
[52] = test system: SW-620 colon
[53] = test system: T-47D breast
[54] = test system: TK-10 renal
[55] = test system: U251 CNS
[56] = test system: UACC-257 melanoma
[57] = test system: UACC-62 melanoma
[58] = test system: UO-31 renal

With `Cc1oc(-c2ccccc2)nc1CN[C@@H]1C[C@@H]2C[C@H]([C@H]1C)C2(C)C` as the molecule, how does the GI50 [1] read?
The GI50 was 5.64 µM.

And the TGI [1]?
Its TGI is 21.1 µM.

What about the GI50 [2] of the same molecule?
Its GI50 is 13.5 µM.

And the TGI [2]?
The TGI was 26.8 µM.

And the GI50 [3]?
Its GI50 is 14 µM.

What about the TGI [3] of the same molecule?
The TGI was 33.6 µM.

What about the GI50 [4] of the same molecule?
The GI50 was 13.7 µM.

And the TGI [4]?
Its TGI is 26.5 µM.

And the GI50 [5]?
The GI50 was 4.94 µM.

What about the TGI [5] of the same molecule?
The TGI was 19.1 µM.

And the GI50 [6]?
Its GI50 is 13.3 µM.

What about the TGI [6] of the same molecule?
Its TGI is 26.1 µM.

What about the GI50 [7] of the same molecule?
Its GI50 is 18.9 µM.

And the TGI [7]?
Its TGI is 48.6 µM.

What about the GI50 [8] of the same molecule?
Its GI50 is 2110 nM.

What about the TGI [8] of the same molecule?
Its TGI is 5.3 µM.

And the GI50 [9]?
Its GI50 is 10.1 µM.

And the TGI [9]?
Its TGI is 21.8 µM.

And the GI50 [10]?
The GI50 was 11.2 µM.

And the TGI [10]?
The TGI was 23.3 µM.

And the GI50 [11]?
Its GI50 is 4.22 µM.

And the TGI [11]?
Its TGI is 16.6 µM.

What about the GI50 [12] of the same molecule?
Its GI50 is 4.3 µM.

What about the TGI [12] of the same molecule?
The TGI was 18.3 µM.

What about the GI50 [13] of the same molecule?
The GI50 was 3.85 µM.

And the TGI [13]?
Its TGI is 15.5 µM.

And the GI50 [14]?
The GI50 was 18 µM.

And the TGI [14]?
Its TGI is 37.7 µM.

And the GI50 [15]?
Its GI50 is 14.2 µM.

And the TGI [15]?
The TGI was 32.4 µM.

And the GI50 [16]?
Its GI50 is 1490 nM.

What about the TGI [16] of the same molecule?
The TGI was 12.6 µM.

And the GI50 [17]?
The GI50 was 11.9 µM.

What about the TGI [17] of the same molecule?
The TGI was 30.5 µM.

What about the GI50 [18] of the same molecule?
Its GI50 is 3.39 µM.

And the TGI [18]?
The TGI was 15 µM.

What about the GI50 [19] of the same molecule?
Its GI50 is 10.1 µM.

What about the TGI [19] of the same molecule?
Its TGI is 22.1 µM.

And the GI50 [20]?
Its GI50 is 3.63 µM.

And the TGI [20]?
Its TGI is greater than 100 µM.

And the GI50 [21]?
Its GI50 is 9.49 µM.

And the TGI [21]?
The TGI was 21.8 µM.

And the GI50 [22]?
The GI50 was 5.17 µM.

What about the TGI [22] of the same molecule?
Its TGI is 18.1 µM.

And the GI50 [23]?
The GI50 was 2210 nM.

And the TGI [23]?
Its TGI is 5.78 µM.

And the GI50 [24]?
Its GI50 is 2870 nM.

What about the TGI [24] of the same molecule?
Its TGI is 13.6 µM.

What about the GI50 [25] of the same molecule?
Its GI50 is 7.06 µM.

What about the TGI [25] of the same molecule?
Its TGI is 21.4 µM.

What about the GI50 [26] of the same molecule?
The GI50 was 4.56 µM.

What about the TGI [26] of the same molecule?
Its TGI is 16.9 µM.

What about the GI50 [27] of the same molecule?
The GI50 was 13.3 µM.

And the TGI [27]?
Its TGI is 26.5 µM.

And the GI50 [28]?
The GI50 was 2130 nM.

What about the TGI [28] of the same molecule?
The TGI was 8.29 µM.

And the GI50 [29]?
Its GI50 is 16.6 µM.

And the TGI [29]?
The TGI was 45.9 µM.

And the GI50 [30]?
Its GI50 is 8.99 µM.

And the TGI [30]?
The TGI was 25 µM.

And the GI50 [31]?
Its GI50 is 12.8 µM.

What about the TGI [31] of the same molecule?
The TGI was 25.9 µM.

And the GI50 [32]?
Its GI50 is 6.32 µM.

What about the TGI [32] of the same molecule?
Its TGI is 20.3 µM.

And the GI50 [33]?
Its GI50 is 12.7 µM.

What about the TGI [33] of the same molecule?
Its TGI is 28.4 µM.

What about the GI50 [34] of the same molecule?
Its GI50 is 12.7 µM.

What about the TGI [34] of the same molecule?
The TGI was 25.5 µM.

What about the GI50 [35] of the same molecule?
The GI50 was 12.7 µM.

What about the TGI [35] of the same molecule?
The TGI was 25.6 µM.

What about the GI50 [36] of the same molecule?
The GI50 was 11.4 µM.

What about the TGI [36] of the same molecule?
The TGI was 25.8 µM.

What about the GI50 [37] of the same molecule?
The GI50 was 7.9 µM.

What about the TGI [37] of the same molecule?
Its TGI is 20.6 µM.

What about the GI50 [38] of the same molecule?
The GI50 was 14.1 µM.

And the TGI [38]?
Its TGI is 31.8 µM.

And the GI50 [39]?
Its GI50 is 7.17 µM.

What about the TGI [39] of the same molecule?
The TGI was 23.1 µM.

What about the GI50 [40] of the same molecule?
The GI50 was 3.82 µM.

What about the TGI [40] of the same molecule?
The TGI was 19.2 µM.

And the GI50 [41]?
The GI50 was 11.6 µM.

What about the TGI [41] of the same molecule?
Its TGI is 25.7 µM.

What about the GI50 [42] of the same molecule?
The GI50 was 15.6 µM.

What about the TGI [42] of the same molecule?
Its TGI is 29.1 µM.

And the GI50 [43]?
Its GI50 is 12.5 µM.

What about the TGI [43] of the same molecule?
Its TGI is 25 µM.

What about the GI50 [44] of the same molecule?
The GI50 was 14.5 µM.

And the TGI [44]?
The TGI was 28.4 µM.

And the GI50 [45]?
The GI50 was 7.59 µM.

And the TGI [45]?
The TGI was 20.3 µM.

And the GI50 [46]?
The GI50 was 3.32 µM.

And the TGI [46]?
Its TGI is 11.9 µM.

And the GI50 [47]?
The GI50 was 16.8 µM.

And the TGI [47]?
Its TGI is 32.3 µM.

What about the GI50 [48] of the same molecule?
Its GI50 is 10.5 µM.

And the TGI [48]?
The TGI was 22.5 µM.

And the GI50 [49]?
The GI50 was 14.2 µM.

And the TGI [49]?
Its TGI is 27.3 µM.

What about the GI50 [50] of the same molecule?
The GI50 was 13.2 µM.

What about the TGI [50] of the same molecule?
Its TGI is 26.6 µM.

What about the GI50 [51] of the same molecule?
Its GI50 is 10.6 µM.

What about the TGI [51] of the same molecule?
The TGI was 36.7 µM.

What about the GI50 [52] of the same molecule?
The GI50 was 11.4 µM.

And the TGI [52]?
The TGI was 24.5 µM.

What about the GI50 [53] of the same molecule?
Its GI50 is 4.42 µM.

And the TGI [53]?
The TGI was 21.4 µM.

And the GI50 [54]?
The GI50 was 15.4 µM.

What about the TGI [54] of the same molecule?
Its TGI is 31.5 µM.

And the GI50 [55]?
The GI50 was 7.61 µM.

What about the TGI [55] of the same molecule?
Its TGI is 22.8 µM.

And the GI50 [56]?
The GI50 was 7.95 µM.

What about the TGI [56] of the same molecule?
The TGI was 21.4 µM.

What about the GI50 [57] of the same molecule?
Its GI50 is 12.5 µM.

What about the TGI [57] of the same molecule?
The TGI was 25 µM.

What about the GI50 [58] of the same molecule?
The GI50 was 4.65 µM.

What about the TGI [58] of the same molecule?
Its TGI is 18.8 µM.
